Source: ChEMBL document CHEMBL1201862, “PubChem BioAssay data set” (2004)
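Following 48 hours of exposure in 96-well plates, responses at five concentrations were used to interpolate endpoints linearly. GI50 marks 50% less growth.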 Active and inactive are the calls of the source. No stated cut-off is given here; in the data, active = GI50 up to about 1.1 µM and inactive = higher.

Experiments:
Assay in all cases: NCI-60 cell line screen, 48 h
[1] = test system: SN12C
[2] = test system: HCT-15
[3] = test system: SNB-75
[4] = test system: NCI-H522
[5] = test system: MDA-MB-435
[6] = test system: K562
[7] = test system: HL-60
[8] = test system: 786-0
[9] = test system: SK-MEL-2
[10] = test system: PC-3
[11] = test system: SK-MEL-28
[12] = test system: KM12
[13] = test system: HOP-62
[14] = test system: DU-145
[15] = test system: OVCAR-5
[16] = test system: OVCAR-4
[17] = test system: A498
[18] = test system: SK-OV-3
[19] = test system: MDA-MB-231
[20] = test system: HCC 2998

SMILES | GI50 [1] | GI50 [2] [µM] | GI50 [3] | GI50 [4] | GI50 [5] | GI50 [6] | GI50 [7] | GI50 [8] | GI50 [9] | GI50 [10] | GI50 [11] | GI50 [12] | GI50 [13] | GI50 [14] | GI50 [15] | GI50 [16] | GI50 [17] | GI50 [18] | GI50 [19] | GI50 [20]
O=C(O)c1cc(CCc2cc(O)ccc2O)ccc1O | > 100 µM (inactive) | > 100 | > 100 µM (inactive) | > 100 µM (inactive) | > 100 µM (inactive) | 37.2 µM (inactive) | 30.6 µM (inactive) | > 100 µM (inactive) | > 100 µM (inactive) | > 100 µM (inactive) | > 100 µM (inactive) | > 100 µM (inactive) | > 100 µM (inactive) | > 100 µM (inactive) | > 100 µM (inactive) | > 100 µM (inactive) | > 100 µM (inactive) | > 100 µM (inactive) |  | 
Cc1ncc(COP(=O)(O)O)c(C)c1O | > 100 µM (inactive) | > 100 |  | > 100 µM (inactive) | > 100 µM (inactive) | > 100 µM (inactive) | > 100 µM (inactive) | > 100 µM (inactive) | > 100 µM (inactive) | > 100 µM (inactive) | > 100 µM (inactive) | > 100 µM (inactive) | > 100 µM (inactive) |  | > 100 µM (inactive) | > 100 µM (inactive) | > 100 µM (inactive) |  | > 100 µM (inactive) | 
CCCCc1ccc(Nc2nc(O)c3ncn(COCCO)c3n2)cc1 | > 100 µM (inactive) | > 100 | > 100 µM (inactive) | > 100 µM (inactive) | > 100 µM (inactive) | 29.8 µM (inactive) | > 100 µM (inactive) | 44.1 µM (inactive) | > 100 µM (inactive) |  |  | > 100 µM (inactive) | > 100 µM (inactive) | > 100 µM (inactive) | > 100 µM (inactive) | > 100 µM (inactive) | > 100 µM (inactive) | > 100 µM (inactive) | > 100 µM (inactive) | > 100 µM (inactive)
O=C1C(NCCc2cc(Cl)c(O)c(Cl)c2)=CC(=O)c2[nH]cnc21 | 30 µM (inactive) | 39.1 |  | 12.8 µM (inactive) | 16.7 µM (inactive) | 26 µM (inactive) | 17.4 µM (inactive) | 55.5 µM (inactive) | 19.2 µM (inactive) | 45.9 µM (inactive) | 28 µM (inactive) | 35.5 µM (inactive) | 44 µM (inactive) |  | 88.7 µM (inactive) |  | 75.7 µM (inactive) |  | 31 µM (inactive) | 38.8 µM (inactive)
CC(=O)/C=C(/C=N/O)c1ccccc1 | > 100 µM (inactive) | 64.3 | 56 µM (inactive) | > 100 µM (inactive) | > 100 µM (inactive) | > 100 µM (inactive) |  | > 100 µM (inactive) | 56.5 µM (inactive) | > 100 µM (inactive) | > 100 µM (inactive) | > 100 µM (inactive) | > 100 µM (inactive) |  | > 100 µM (inactive) | > 100 µM (inactive) |  | > 100 µM (inactive) | > 100 µM (inactive) | > 100 µM (inactive)
CCCC(=O)Nc1ccc2c(c1)CN1C(=O)c3ccccc3C1=N2 | > 100 µM (inactive) | > 100 | 49.5 µM (inactive) | > 100 µM (inactive) | > 100 µM (inactive) |  | > 100 µM (inactive) | > 100 µM (inactive) | > 100 µM (inactive) | > 100 µM (inactive) | > 100 µM (inactive) | > 100 µM (inactive) | > 100 µM (inactive) | > 100 µM (inactive) | > 100 µM (inactive) | > 100 µM (inactive) |  | > 100 µM (inactive) | > 100 µM (inactive) | > 100 µM (inactive)
O=C(O)c1ccccc1/C=N/N=C1NCCN1 |  | > 100 | > 100 µM (inactive) | 71.8 µM (inactive) | > 100 µM (inactive) | > 100 µM (inactive) | 49.4 µM (inactive) | > 100 µM (inactive) | 59.6 µM (inactive) | > 100 µM (inactive) | > 100 µM (inactive) | > 100 µM (inactive) | > 100 µM (inactive) |  | > 100 µM (inactive) | > 100 µM (inactive) | 26.8 µM (inactive) | 61.5 µM (inactive) | > 100 µM (inactive) | > 100 µM (inactive)
N#CCc1nc2cc(C(F)(F)F)ccc2s1 | 45.5 µM (inactive) | 52.1 | 35.3 µM (inactive) | 11.1 µM (inactive) | 40.4 µM (inactive) |  |  | 37.3 µM (inactive) |  |  |  | 64.6 µM (inactive) | 73.3 µM (inactive) | 48.3 µM (inactive) | > 100 µM (inactive) | 38.6 µM (inactive) | 70 µM (inactive) | > 100 µM (inactive) | 95.1 µM (inactive) | 
COc1ccc2nc3ccc(OC)cc3c(SCC3CO3)c2c1 (centres undefined) | 13.8 µM (inactive) | 15.6 | 37.2 µM (inactive) | 13 µM (inactive) | 18.2 µM (inactive) | 8.59 µM (inactive) |  | 11.1 µM (inactive) | 14.2 µM (inactive) | 14.9 µM (inactive) | 17.7 µM (inactive) | 16.1 µM (inactive) | 44.6 µM (inactive) |  | 24.9 µM (inactive) | 19.5 µM (inactive) | 25.8 µM (inactive) | 71.3 µM (inactive) | 15 µM (inactive) | 15.6 µM (inactive)
Cc1cc2c3ccccc3[nH]c2c2ccnc(C)c12 | 5.56 µM (inactive) | 2.34 | 7.28 µM (inactive) | 2.65 µM (inactive) | 1.65 µM (inactive) | 2.22 µM (inactive) | 2.07 µM (inactive) | 1.65 µM (inactive) | 8.63 µM (inactive) | 10.2 µM (inactive) | 1.77 µM (inactive) | 10.6 µM (inactive) | 13.6 µM (inactive) | 6.47 µM (inactive) | 7.36 µM (inactive) | > 100 µM (inactive) |  | 14.2 µM (inactive) | 4.08 µM (inactive) | 2.87 µM (inactive)
O=C(c1cccnc1)N1N=C(c2ccc(Cl)cc2)CC1(O)c1cc(F)c(Cl)cc1Cl (centres undefined) | 14.1 µM (inactive) | 13.6 | 5.7 µM (inactive) | 19.5 µM (inactive) | 15.9 µM (inactive) | 16.6 µM (inactive) | 15.1 µM (inactive) | 17.9 µM (inactive) | 22 µM (inactive) | 12.9 µM (inactive) | 23.6 µM (inactive) | 28.8 µM (inactive) | 21.5 µM (inactive) | 16.9 µM (inactive) | 33.7 µM (inactive) | 15.8 µM (inactive) |  | 30.2 µM (inactive) | 15.1 µM (inactive) | 
Clc1cc(Cl)c2n[se]nc2c1 | > 100 µM (inactive) | > 100 | 60.1 µM (inactive) | > 100 µM (inactive) |  | > 100 µM (inactive) | > 100 µM (inactive) | > 100 µM (inactive) | 94 µM (inactive) |  | > 100 µM (inactive) | > 100 µM (inactive) | > 100 µM (inactive) |  | > 100 µM (inactive) | > 100 µM (inactive) | > 100 µM (inactive) | > 100 µM (inactive) |  | > 100 µM (inactive)
N#C/C(=C\c1ccc2ccccc2c1)C(=O)c1ccccc1 | > 66.5 µM (inactive) | 65 | 93.1 µM (inactive) | > 92 µM (inactive) | 19.4 µM (inactive) | > 65.8 µM (inactive) | 30.9 µM (inactive) | > 61.8 µM (inactive) | > 100 µM (inactive) | 51.5 µM (inactive) | > 47 µM (inactive) | > 100 µM (inactive) | 20.8 µM (inactive) | > 100 µM (inactive) | > 100 µM (inactive) | > 100 µM (inactive) | > 85.7 µM (inactive) | > 46.8 µM (inactive) |  | > 100 µM (inactive)
C=C(C)CNC(=S)N(N)c1ccc(OC)cc1 | 66.8 µM (inactive) | 21.8 | 99.8 µM (inactive) | 56.1 µM (inactive) | 54.8 µM (inactive) | 39.6 µM (inactive) | > 100 µM (inactive) | > 100 µM (inactive) |  | > 100 µM (inactive) | > 100 µM (inactive) | 39.2 µM (inactive) | > 100 µM (inactive) | > 100 µM (inactive) | > 100 µM (inactive) | > 100 µM (inactive) |  | > 100 µM (inactive) | > 100 µM (inactive) | > 100 µM (inactive)
CCC(C)(C)c1ccc(OCCCCNC(=O)c2ccc3ccccc3c2O)c(C(C)(C)CC)c1 | 34.6 µM (inactive) | 0.425 | 29.8 µM (inactive) | 14.6 µM (inactive) |  | 4.54 µM (inactive) | 29.1 µM (inactive) | 15.1 µM (inactive) | 30.8 µM (inactive) | 6.08 µM (inactive) | 13.6 µM (inactive) | 44.8 µM (inactive) | 33 µM (inactive) | 54.7 µM (inactive) | 69.5 µM (inactive) | > 100 µM (inactive) | 29.7 µM (inactive) | 74 µM (inactive) | 30 µM (inactive) | 38.3 µM (inactive)
CC1=CC(=O)/C(=C/NC(=O)NN)C(=O)O1 | > 100 µM (inactive) | > 100 | 45.4 µM (inactive) | > 100 µM (inactive) | > 100 µM (inactive) |  |  | > 100 µM (inactive) | > 100 µM (inactive) | > 100 µM (inactive) | 54.5 µM (inactive) | > 100 µM (inactive) | > 100 µM (inactive) | > 100 µM (inactive) | > 100 µM (inactive) | > 100 µM (inactive) |  | > 100 µM (inactive) | > 100 µM (inactive) | > 100 µM (inactive)
